The values below come from patent publication US10675333B2, “Infusion pump” (priority 2016, dated 2020).

The experiment has as its system subject with a body weight of 51.5 kg. The experiment in a line: GnRH stimulation test (LH and FSH levels). The experiment is classed as in vivo, human. As for the experimental part: In the test, a subject with a body weight of 51.5 kg was included, and their luteinizing hormone (LH) and follicle-stimulating hormone (FSH) levels were measured as test indicators both in mIU/mL.

Turning to “GnRH: stimulating agent of the GnRH stimulation test; not further described (QHWSYGLRPG; Gonadoliberin-1; UniProt P01148 24-33, looked up)”, the FSH runs as follows: (0 min (reference time)) 3.49 mIU/mL; (25 min) 4.47 mIU/mL; (45 min) 5.44 mIU/mL; (90 min) 6.21 mIU/mL; (180 min) 6.12 mIU/mL. This substance registered an LH (0 min (reference time)) of 0.99 mIU/mL; an LH (25 min) of 3.2 mIU/mL; an LH (45 min) of 3.76 mIU/mL; an LH (90 min) of 3.76 mIU/mL; an LH (180 min) of 2.46 mIU/mL. For the setting “maximum stimulated level”, this substance showed an FSH maximum level of 6.21 mIU/mL. Besides, the LH maximum level (maximum stimulated level) worked out at 3.76 mIU/mL.
